The target in series [1] is T1, α4β2 subtype of nicotinic receptors (neuronal nicotinic receptors) (Rattus norvegicus, UniProt P09483+P12390).
T1 construct: The forebrain (÷cerebellum) from a male Wistar rat (150-250 g) is homogenized; from tissue; host or cells: rat forebrain (without cerebellum) homogenate (male Wistar)
Description: In vitro inhibition of 3H-epibatidin binding. As to the method: In Vitro Inhibition of ^3H-epibatidin Binding
The high affinity binding site for ^3H-epibatidin is most certainly binding to the α4β2 subtype of nicotinic receptors. The identity of the low affinity site is still unknown; does it represent a second nicotinic receptor or a second site in the same receptor.
Tissue preparation: Preparations are performed at 0-4° C. unless otherwise indicated. The forebrain (÷cerebellum) from a male Wistar rat (150-250 g) is homogenized for 10-20 sec in 20 ml Tris, HCl (50 mM, pH 7.4) using an Ultra-Turrax homogenizer. The tissue suspension is centrifuged at 27,000×g for 10 min. The supernatant is discarded and the pellet is washed three times by centrifugation at 27,000×g for 10 min in 20 ml fresh buffer, and the final pellet is resuspended in fresh buffer (400 ml per g of original tissue) and used for binding assays.
Assay: Aliquots of 2.0 ml homogenate are added to 0.100 ml of test solution and 0.100 ml of ^3H-epibatidin (0.3 nM, final concentration), mixed and incubated for 60 min at room temperature. Non-specific binding is determined using (−)-nicotine (30 μM, final concentration). After incubation the samples are poured directly onto Whatman GF/C glass fibre filters (presoaked in 0.1% PEI for at least 20 min) under suction and immediately washed with 2×5 ml ice-cold buffer. The amount of radioactivity on the filters is determined by conventional liquid scintillation counting. Specific binding is total binding minus non-specific binding.

In series [2] the target is nAChR formed by the α7 subunit isoform (Rattus norvegicus, UniProt Q05941). Put plainly: biochemical. It is filed as binding.
Series [3] has as its target nAChRs comprised of α4 and β2 subunits (Rattus norvegicus, UniProt P09483+P12390). Description: In vitro inhibition of 3H-cytisine binding. As to the method:
In Vitro Inhibition of ^3H-cytisine Binding
The predominant subtype with high affinity for nicotine is comprised of α4 and β2 subunits. nAChRs of the latter type can selectively be labelled by the nicotine agonist ^3H-cytisine.
Tissue Preparation: Preparations are performed at 0-4° C. unless otherwise indicated. […] The homogenate is centrifuged at 27,000×g for 10 min. The supernatant is discarded and the pellet is resuspended in fresh buffer and centrifuged a second time. The final pellet is resuspended in fresh buffer (35 ml per g of original tissue) and used for binding assays.
Assay: Aliquots of 500 μl homogenate are added to 25 μl of test solution and 25 μl of ^3H-cytisine (1 nM, final concentration), mixed and incubated for 90 min at 2° C. Non-specific binding is determined using (−)-nicotine (100 μM, final concentration). After incubation the samples are added 5 ml of ice-cold buffer and poured directly onto Whatman GF/C glass fibre filters under suction and immediately washed with 2×5 ml ice-cold buffer. The amount of radioactivity on the filters is determined by conventional liquid scintillation counting. Specific binding is total binding minus non-specific binding.

[4] abbreviates: rat cerebral cortex homogenate, 1 nM 3H-cytisine, 90 min at 2° C., read-out: 3H-cytisine IC50.
Where [5] appears, read: read-out: 3H-α-bungarotoxin IC50.
Setting [6] is: rat forebrain homogenate, 0.3 nM 3H-epibatidin, 60 min at room temperature, read-out: 3H-epibatidin IC50.

Our source for the IC50 and melting point values is US6392045B1, “9-azobicyclo[3.3.1] non-2-ene derivatives as cholinergic ligands at nicotinic ACH receptors” (NeuroSearch A/S, priority 1997, dated 2002).

Structures can show the parent of a compound that is named as a salt. Where two headings read alike, the source gives them in different places.

Chain of nAChR formed by the α7 subunit isoform (Q05941 23-502): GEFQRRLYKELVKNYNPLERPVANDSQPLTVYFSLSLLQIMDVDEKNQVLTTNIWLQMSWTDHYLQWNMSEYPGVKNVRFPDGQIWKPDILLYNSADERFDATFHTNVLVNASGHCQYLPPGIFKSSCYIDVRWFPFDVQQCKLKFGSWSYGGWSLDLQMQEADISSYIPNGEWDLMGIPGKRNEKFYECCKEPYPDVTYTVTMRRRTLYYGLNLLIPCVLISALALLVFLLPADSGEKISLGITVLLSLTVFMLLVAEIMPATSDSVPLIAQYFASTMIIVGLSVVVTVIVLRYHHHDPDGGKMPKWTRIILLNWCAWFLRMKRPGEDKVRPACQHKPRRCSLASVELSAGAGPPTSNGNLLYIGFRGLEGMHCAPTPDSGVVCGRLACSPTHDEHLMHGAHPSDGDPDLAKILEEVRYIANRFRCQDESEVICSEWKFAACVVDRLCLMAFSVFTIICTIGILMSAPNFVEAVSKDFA
Chain of nAChRs comprised of α4 and β2 subunits (P09483 31-630): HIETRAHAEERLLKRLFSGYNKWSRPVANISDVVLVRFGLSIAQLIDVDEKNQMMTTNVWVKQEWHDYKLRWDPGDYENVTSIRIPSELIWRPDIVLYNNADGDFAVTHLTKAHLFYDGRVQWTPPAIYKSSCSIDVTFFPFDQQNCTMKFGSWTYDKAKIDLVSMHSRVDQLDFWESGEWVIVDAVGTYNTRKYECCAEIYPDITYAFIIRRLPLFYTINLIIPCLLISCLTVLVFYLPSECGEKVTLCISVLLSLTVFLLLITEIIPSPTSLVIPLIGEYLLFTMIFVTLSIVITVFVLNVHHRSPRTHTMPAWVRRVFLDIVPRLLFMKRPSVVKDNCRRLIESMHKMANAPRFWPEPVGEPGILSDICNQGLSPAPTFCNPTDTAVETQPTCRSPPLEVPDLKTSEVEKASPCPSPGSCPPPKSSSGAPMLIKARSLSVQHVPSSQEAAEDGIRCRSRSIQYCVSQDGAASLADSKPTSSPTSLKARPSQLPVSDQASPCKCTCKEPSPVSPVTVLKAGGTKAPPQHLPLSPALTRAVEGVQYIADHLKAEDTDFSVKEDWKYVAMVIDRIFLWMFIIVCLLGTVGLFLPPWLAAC
Chain of nAChRs comprised of α4 and β2 subunits (P12390 25-500): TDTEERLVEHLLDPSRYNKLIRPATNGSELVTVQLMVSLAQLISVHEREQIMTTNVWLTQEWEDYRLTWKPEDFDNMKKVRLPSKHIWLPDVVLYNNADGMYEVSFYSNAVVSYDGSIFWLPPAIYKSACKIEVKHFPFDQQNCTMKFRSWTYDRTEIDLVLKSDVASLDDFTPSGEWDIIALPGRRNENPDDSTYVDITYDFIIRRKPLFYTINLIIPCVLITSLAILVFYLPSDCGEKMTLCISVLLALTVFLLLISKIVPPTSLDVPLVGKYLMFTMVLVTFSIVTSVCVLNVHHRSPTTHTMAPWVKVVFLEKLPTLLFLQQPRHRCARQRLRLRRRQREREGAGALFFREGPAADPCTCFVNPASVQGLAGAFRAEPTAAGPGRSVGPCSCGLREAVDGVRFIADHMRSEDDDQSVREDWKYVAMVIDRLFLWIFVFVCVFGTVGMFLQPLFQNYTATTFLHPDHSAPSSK
T1 sequence (P09483 31-630): as the sequence (P09483 31-630) above
T1 sequence (P12390 25-500): as the sequence (P12390 25-500) above

For orientation: IC50 means the concentration that inhibits the measured activity by half. As for `CN1C2C=C(c3cc4ccccc4o3)CC1CCC2` (racemic) [Compound 4a, (±)-3-(2-Benzofuryl)-9-methyl-9-azabicyclo[3.1]non-2-ene Fumaric Acid Salt], the values for the IC50 in series [1], in series [2] and in series [3] (setting [4]) were above 300000 nM, 190 nM and above 300000 nM, respectively.

For orientation: melting point means the temperature, or range, at which the solid turns liquid. `CN1C2C=C(c3cccnc3)CC1CCC2.O=C(O)/C=C/C(=O)O` (racemic) [Compound 1a, (±)-9-Methyl-3-(3-pyridyl)-9-azabicyclo[3.3.1]non-2-ene Fumaric Acid Salt] showed a melting point of 164.5 to 166.5 °C. This molecule also showed an IC50 in series [1] of 84 nM. In series [2] (setting [5]), the IC50 is 500 nM. In series [3], the 50% inhibitory concentration (IC50) came out at 23 nM.

`CN1C2C=C(c3cccc4ncccc34)CC1CCC2` (racemic) showed a melting point of 142 to 144 °C.

`CN1C2C=C(c3ccc4ccccc4c3)CC1CCC2` (racemic) (as salt: oxalic acid salt) [Compound 8c, (±)-3-(2-Naphtyl)-9-methyl-9-azabicyclo[3.3.1]non-2-ene Oxalic Acid Salt]: the melting point lay within 87.9 to 92.2 °C.

`CN1C2C=C(c3cccc(N)c3)CC1CCC2.O=C(O)/C=C/C(=O)O` (racemic) [Compound 1c, (±)-3-(3-Aminophenyl)-9-methyl-9-azabicyclo[3.3.1]non-2-ene Fumaric Acid Salt] yielded a melting point of 174 to 180 °C. For the same molecule, the concentration for half-maximal inhibition (IC50) in series [1] (setting [6]) came out at 180 nM. Moreover, 220 nM corresponded to half-maximal inhibition in series [2] (IC50). Further, the IC50 in series [3] (setting [4]) was 40 nM.

Molecule `C1=C(c2cccnc2)CC2CCCC1N2Cc1ccccc1.O=C(O)/C=C/C(=O)O` (racemic) gave a melting point of 186 to 187 °C.

`CN1C2C=C(c3cncc(-c4cccnc4)c3)CC1CCC2.O=C(O)/C=C/C(=O)O` (racemic) [Compound 2b, (±)-9-Methyl-3-[5-(3-pyridyl)-3-pyridyl]-9-azabicyclo[3.3.1]non-2-ene Fumaric Acid Salt]: the melting point lay in the range of 206 to 208 °C. For the same molecule, the IC50 in series [1] stood at 240 nM. Besides, the half-inhibitory concentration (IC50) in series [2] (setting [5]) is 17000 nM. The IC50 in series [3] was 13 nM.

`CN1C2C=C(c3cnc4ccccc4c3)CC1CCC2.O=C(O)/C=C/C(=O)O` (racemic) [Compound 6b, (±)-3-(3-Quinolinyl)-9-methyl-9-azabicyclo[3.3.1]non-2-ene Fumaric Acid Salt] came in with a melting point of 195 to 197 °C. Further, the IC50 in series [1] (setting [6]) is 8300 nM. In series [2], this molecule came in with an IC50 of 350 nM. Moreover, in series [3] (setting [4]), the IC50 amounted to 1000 nM.

`COc1cncc(C2=CC3CCCC(C2)N3C)c1` (racemic) (as salt: fumaric acid salt) [Compound 2a, (±)-3-[3-(5-Methoxy)-pyridyl]-9-methyl-9-azabicyclo[3.3.1]non-2-ene Fumaric Acid Salt] had a melting point of 125 to 126.5 °C.

In the case of `COc1cncc(C2=CC3CCCC(C2)N3C)c1` (racemic) [Compound 2a, (±)-3-[3-(5-Methoxy)-pyridyl]-9-methyl-9-azabicyclo[3.3.1]non-2-ene Fumaric Acid Salt], the IC50 in series [1] was 76 nM; in series [2] (setting [5]), 2000 nM; in series [3], 17 nM.

Regarding `CN1C2C=C(c3cncc(-c4ccc(Oc5ccccc5)cc4)c3)CC1CCC2.O=C(O)/C=C/C(=O)O` (racemic) [Compound 4b, (±)-3-[5-(4-Phenoxyphenyl)-3-pyridyl]-9-methyl-9-azabicyclo[3.3.1]non-2-ene Fumaric Acid Salt], the melting point was in the range of 166 to 168 °C. In series [1], this molecule yielded an IC50 of 690 nM. Also, the IC50 in series [2] (setting [5]) was determined as 17000 nM. Further, in series [3], the IC50 is 350 nM.

Consider `CN1C2C=C(c3cccn3C)CC1CCC2` (racemic) [Compound 1d, (±)-3-[2-(1-Methyl-pyrrolyl)]-9-methyl-9-azabicyclo[3.3.1]non-2-ene], for which the IC50 in series [2] (setting [5]) was 1900 nM; in series [3], 1800 nM.

`CN1C2C=C(c3nc4ccccc4s3)CC1CCC2.O=C(O)/C=C/C(=O)O` (racemic) yielded a melting point of 176 to 177 °C.

`CN1C2C=C(c3ccc4c(c3)OCO4)CC1CCC2.O=C(O)/C=C/C(=O)O` (racemic) returned a melting point of 159 to 163 °C.

In turn, `COc1ccc(C2=CC3CCCC(C2)N3C)cn1` (racemic) (as salt: fumaric acid salt) [Compound 5b, (±)-3-[3-(6-Methoxy)-pyridyl)]-9-methyl-9-azabicyclo[3.3.1]non-2-ene Fumaric Acid Salt] had a melting point of 116 to 124 °C.

On to `CN1C2C=C(c3cc4ccccc4o3)CC1CCC2.O=C(O)/C=C/C(=O)O` (racemic) [Compound 7c, (±)-3-(2-Benzofuryl)-9-methyl-9-azabicyclo[3.3.1]non-2-ene Fumaric Acid Salt], for which the melting point was 184 to 186 °C. In addition, inhibition in series [2] was half-maximal at 190 nM (IC50). In addition, the half-maximal inhibitory concentration (IC50) in series [3] (setting [4]) was above 300000 nM.

For the molecule `CN1[C@@H]2CCC[C@H]1C[C@H](c1cccnc1)C2` [Compound 8a, Exo-9-Methyl-3-(3-pyridyl)-9-azabicyclo[3.3.1]nonane], the melting point was in the range of 69 to 70 °C. For the same molecule, the IC50 in series [1] came to 110 nM. In series [2] (setting [5]), the IC50 is 1400 nM. Further, the 50% inhibitory concentration (IC50) in series [3] came to 18 nM.

In turn, `C1=C(c2cccnc2)CC2CCCC1N2` (racemic) (as salt: fumaric acid salt) [Compound 11c, (±)-9-H-3-(3-Pyridyl)-9-azabicyclo[3.3.1]oct-2-ene Fumaric Acid Salt] displayed a melting point of 188.5 to 190 °C.

On to `CN1C2C=C(c3ccc4ccccc4c3)CC1CCC2` (racemic) [Compound 8c, (±)-3-(2-Naphtyl)-9-methyl-9-azabicyclo[3.3.1]non-2-ene Oxalic Acid Salt], for which the IC50 in series [1] is above 300000 nM; in series [2], 370 nM; in series [3] (setting [4]), above 300000 nM.

As to `CN1C2C=C(c3cncc(-c4ccccc4)c3)CC1CCC2` (racemic) [Compound 3a, (±)-9-Methyl-3-[3-(5-phenyl)-pyridyl]-9-azabicyclo[3.3.1]non-2-ene Fumaric Acid Salt], the IC50 worked out at 150 nM in series [1], 4100 nM in series [2] (setting [5]) and 25 nM in series [3].

For `CN1C2C=C(c3cccc(N4CCCC4)c3)CC1CCC2` (racemic) [Compound 3c, (±)-3-[3-(1-Pyrrolidinyl)-phenyl]-9-methyl-9-azabicyclo[3.3.1]non-2-ene], the IC50 in series [1] was above 10000 nM; in series [2] it was 18000 nM; in series [3] (setting [4]), above 10000 nM.

With `C1=C(c2cccnc2)CC2CCCC1N2` (racemic) [Compound 11c, (±)-9-H-3-(3-Pyridyl)-9-azabicyclo[3.3.1]oct-2-ene Fumaric Acid Salt], the concentration for half-maximal inhibition (IC50) stood at 46 nM in series [1], 170 nM in series [2] (setting [5]) and 4.5 nM in series [3] (setting [4]).

Consider `CN1C2C=C(c3cc4ccccc4s3)CC1CCC2` (racemic) [Compound 7a, (±)-3-(2-Benzothienyl)-9-methyl-9-azabicyclo[3.3.1]non-2-ene], for which the IC50 was 280000 nM in series [1], 160 nM in series [2] and 280000 nM in series [3] (setting [4]).

In the case of `COc1ccc(C2=CC3CCCC(C2)N3C)cn1` (racemic) [Compound 5b, (±)-3-[3-(6-Methoxy)-pyridyl)]-9-methyl-9-azabicyclo[3.3.1]non-2-ene Fumaric Acid Salt], the IC50 was found to be 17000 nM in series [1], 2300 nM in series [2] (setting [5]) and 2000 nM in series [3].

On to `COc1cncc(C2=CC3CCCC(C2)N3)c1` (racemic) [Compound 3d, (±)-9-H-3-(3-(5-methoxy)-pyridyl)-9-azabicyclo[3.3.1]non-2-ene], for which the IC50 in series [1] was 18 nM; in series [2] (setting [5]), 17 nM; in series [3] (setting [4]), 3 nM.

In turn, `CN1C2C=C(c3cncc(-c4ccccc4)c3)CC1CCC2` (racemic) (as salt: fumaric acid salt) [Compound 3a, (±)-9-Methyl-3-[3-(5-phenyl)-pyridyl]-9-azabicyclo[3.3.1]non-2-ene Fumaric Acid Salt] returned a melting point of 147.5 to 149.5 °C.
